Values of other authors as cited in US8771310B2, “Anti-no-reflow guide wire for vascular interventional procedures” (Adenopaint, LLC, priority 2007, dated 2014).

What was measured:
patients with STEMI = details: large intravenous doses
[1] = system: patients with stable and unstable angina; details: intracoronary infusion or bolus via guide catheter prior to procedure; 24 hours after PCI
patients undergoing PCI = details: preloading 600 mg
[2] = system: patients undergoing PCI of SVGs; details: PCI of degenerated SVGs

## Nc1ncnc2c1ncn2[C@@H]1O[C@H](CO)[C@@H](O)[C@H]1O [adenosine]
Patients with STEMI
  cardioprotection with reperfusion therapies: cardioprotective affects
[1]
  rise in CK-MB and Troponin after PCI: significantly attenuated the rise

## COC(=O)[C@H](c1ccccc1Cl)N1CCc2sccc2C1 [clopidogrel]
Patients undergoing PCI
  cell necrosis after PCI: reduced cell necrosis

B1: abciximab: IIb/IIIa platelet inhibitor (antibody, chains of the INN, looked up, V domains shown)
VH: EVQLQQSGTVLARPGASVKMSCEASGYTFTNYWMHWVKQRPGQGLEWIGAIYPGNSDTSYIQKFKGKAKLTAVTSTTSVYMELSSLTNEDSAVYYCTLYDGYYVFAYWGQGTLVTVSA
VL: EIVLTQSPVTLSVTPGDSVSLSCRASRDISNNLHWFQQTSHESPRLLIKYASQSMSGIPSRFSGSGSGTDFTLSINSVETEDFGMYFCQQTNSWPYTFGGGTKLEIK
modifications: Fab
[2]
  MACE at thirty days: failed to reduce MACE at thirty days
